Source: patent publication US7696234B2, “Histamine H3 receptor agents, preparation and therapeutic uses” (Eli Lilly and Company, priority 2004, dated 2010)

Target: T1, H3R membranes (human histamine 3 receptor) (Homo sapiens, UniProt Q9Y5N1)
T1 construct: expressed in transfected cells; pcDNA3.1(+) vector, G418 selection)
Test: [35S] GTP γ [S] Binding Assay
Assay type: biochemical
Conditions: inhibition of [35S]GTPγS binding to membranes from H3R8-expressing HEK293 cells in the presence of agonist R(−)alpha methylhistamine
Description: Membranes isolated as described in (Preparation of Histamine Receptor Subtype Membranes) were used in a [35S]GTPχS functional assay. Binding of [35S]GTPχS to membranes indicates agonist activity. Compounds of the invention of Formula I were tested for their ability to inhibit binding in the presence of agonists. Alternately, the same transfected cell lines were used for a cAMP assay wherein H3R agonists inhibited forskolin-activated synthesis of cAMP. Compounds of Formula I were tested for their ability to permit forskolin-stimulated cAMP synthesis in the presence of agonist. cDNA for the human histamine 3 receptor was cloned and expressed as described in (A. Preparation H1R membranes), above. Transfected cells were selected using G418 ([…]), grown, and tested for histamine binding by the SPA described above. For total binding, cells were assayed in a SPA reaction described above containing 50 mM Tris-HCL (assay buffer), pH 7.6, 1 mg wheat germ agglutinin SPA beads (Amersham Pharmacia Biotech, #RPNQ0001), and 1 nM (^3H)-n-alpha-methylhistamine (NEN, NET1027) (total volume per well=200 μl). Thioperimide was added to determine non-specific binding. Several clones were selected as positive for binding, and a single clone (H3R8) was used to prepare membranes for binding studies described above. […] Plates were counted in Wallac Trilux 1450 Microbeta scintillation counter for 1 minute. […]

T1 sequence (Q9Y5N1 whole entry): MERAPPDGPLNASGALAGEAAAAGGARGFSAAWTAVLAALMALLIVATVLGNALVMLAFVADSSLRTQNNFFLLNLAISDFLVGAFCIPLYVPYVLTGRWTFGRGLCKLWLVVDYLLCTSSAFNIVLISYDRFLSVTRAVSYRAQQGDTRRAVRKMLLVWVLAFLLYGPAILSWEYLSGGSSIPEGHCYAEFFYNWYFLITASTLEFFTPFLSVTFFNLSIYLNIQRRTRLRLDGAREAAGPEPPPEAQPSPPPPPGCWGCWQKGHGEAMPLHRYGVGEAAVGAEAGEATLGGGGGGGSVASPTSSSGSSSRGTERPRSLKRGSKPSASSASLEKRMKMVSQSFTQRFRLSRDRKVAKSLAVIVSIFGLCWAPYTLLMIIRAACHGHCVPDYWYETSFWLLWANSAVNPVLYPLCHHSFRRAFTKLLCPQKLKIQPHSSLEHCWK

| SMILES | Ki |
| --- | --- |
| COc1ccc(COc2ccc(C(=O)N3CCC[C@H]3CN3CCCC3)cc2)cc1 | 19 nM |
| O=C(c1ccc(OCc2cnccn2)cc1)N1CCC[C@H]1CN1CCCC1 | 4.1 nM |
